ChEMBL document CHEMBL4507315 (2021)

How the values were obtained:
[1] = test system: Tyrosine-protein kinase ABL1 (Homo sapiens), P00519 [F317L]; settings: Compound concentration 100.0 nM
[2] = target: Activin receptor type-1-like (Homo sapiens) (UniProt P37023); settings: Compound concentration 100.0 nM
[3] = target: Atypical kinase COQ8A, mitochondrial (Homo sapiens) (UniProt Q8NI60); settings: Compound concentration 100.0 nM
[4] = target: Atypical kinase COQ8B, mitochondrial (Homo sapiens) (UniProt Q96D53); settings: Compound concentration 100.0 nM
[5] = target: Bone morphogenetic protein receptor type-2 (Homo sapiens) (UniProt Q13873); settings: Compound concentration 100.0 nM
[6] = target: Calcium/calmodulin-dependent protein kinase type 1B (Homo sapiens) (UniProt Q6P2M8); settings: Compound concentration 100.0 nM
[7] = target: Cyclin-dependent kinase 4 (Homo sapiens) (UniProt P11802); settings: Compound concentration 100.0 nM
[8] = target: Death-associated protein kinase 2 (Homo sapiens) (UniProt Q9UIK4); settings: Compound concentration 100.0 nM
[9] = target: Mitogen-activated protein kinase kinase kinase 12 (Homo sapiens) (UniProt Q12852); settings: Compound concentration 100.0 nM
[10] = target: Serine/threonine-protein kinase MRCK gamma (Homo sapiens) (UniProt Q6DT37); settings: Compound concentration 100.0 nM
[11] = test system: Epidermal growth factor receptor (Homo sapiens), P00533 [UNDEFINED MUTATION]; settings: Compound concentration 100.0 nM
[12] = target: Ephrin type-A receptor 4 (Homo sapiens) (UniProt P54764); settings: Compound concentration 100.0 nM
[13] = target: Ephrin type-A receptor 8 (Homo sapiens) (UniProt P29322); settings: Compound concentration 100.0 nM
[14] = target: Tyrosine-protein kinase Fes/Fps (Homo sapiens) (UniProt P07332); settings: Compound concentration 100.0 nM
[15] = target: Fibroblast growth factor receptor 3 (Homo sapiens) (UniProt P22607); settings: Compound concentration 100.0 nM
[16] = test system: Fibroblast growth factor receptor 3 (Homo sapiens), P22607 [G697C]; settings: Compound concentration 100.0 nM
[17] = test system: Receptor-type tyrosine-protein kinase FLT3 (Homo sapiens), P36888 [D835H]; settings: Compound concentration 100.0 nM
[18] = test system: Receptor-type tyrosine-protein kinase FLT3 (Homo sapiens), P36888 [K663Q]; settings: Compound concentration 100.0 nM
[19] = target: Homeodomain-interacting protein kinase 3 (Homo sapiens) (UniProt Q9H422); settings: Compound concentration 100.0 nM
[20] = target: Inhibitor of nuclear factor kappa-B kinase subunit alpha (Homo sapiens) (UniProt O15111); settings: Compound concentration 100.0 nM
[21] = target: Interleukin-1 receptor-associated kinase 1 (Homo sapiens) (UniProt P51617); settings: Compound concentration 100.0 nM
[22] = target: Interleukin-1 receptor-associated kinase 3 (Homo sapiens) (UniProt Q9Y616); settings: Compound concentration 100.0 nM
[23] = target: Mitogen-activated protein kinase 10 (Homo sapiens) (UniProt P53779); settings: Compound concentration 100.0 nM
[24] = test system: Mast/stem cell growth factor receptor Kit (Homo sapiens), P10721 [V559D]; settings: Compound concentration 100.0 nM
[25] = target: Leucine-rich repeat serine/threonine-protein kinase 2 (Homo sapiens) (UniProt Q5S007); settings: Compound concentration 100.0 nM
[26] = target: Mitogen-activated protein kinase kinase kinase 4 (Homo sapiens) (UniProt Q9Y6R4); settings: Compound concentration 100.0 nM
[27] = target: Mitogen-activated protein kinase kinase kinase kinase 2 (Homo sapiens) (UniProt Q12851); settings: Compound concentration 100.0 nM
[28] = target: Dual specificity mitogen-activated protein kinase kinase 5 (Homo sapiens) (UniProt Q13163); settings: Compound concentration 100.0 nM
[29] = target: MAP kinase-interacting serine/threonine-protein kinase 1 (Homo sapiens) (UniProt Q9BUB5); settings: Compound concentration 100.0 nM
[30] = target: Cyclin-dependent kinase 2 homolog (Plasmodium falciparum (isolate 3D7)) (UniProt P61075); settings: Compound concentration 100.0 nM
[31] = target: Serine/threonine-protein kinase PknB (Mycobacterium tuberculosis) (UniProt P9WI81); settings: Compound concentration 100.0 nM
[32] = target: Protein kinase C delta type (Homo sapiens) (UniProt Q05655); settings: Compound concentration 100.0 nM
[33] = target: Rho-associated protein kinase 1 (Homo sapiens) (UniProt Q13464); settings: Compound concentration 100.0 nM
[34] = target: Ribosomal protein S6 kinase alpha-5 (Homo sapiens) (UniProt O75582); settings: Compound concentration 100.0 nM
[35] = target: Ribosomal protein S6 kinase alpha-5 (Homo sapiens) (UniProt O75582); settings: Compound concentration 100.0 nM; remark: listed apart in the source
[36] = target: Serine/threonine-protein kinase SBK1 (Homo sapiens) (UniProt Q52WX2); settings: Compound concentration 100.0 nM
[37] = target: Serine/threonine-protein kinase Sgk1 (Homo sapiens) (UniProt O00141); settings: Compound concentration 100.0 nM
[38] = target: Mitogen-activated protein kinase kinase kinase 7 (Homo sapiens) (UniProt O43318); settings: Compound concentration 100.0 nM
[39] = target: Tyrosine-protein kinase Tec (Homo sapiens) (UniProt P42680); settings: Compound concentration 100.0 nM
[40] = target: Angiopoietin-1 receptor (Homo sapiens) (UniProt Q02763); settings: Compound concentration 100.0 nM
[41] = target: Testis-specific serine/threonine-protein kinase 1 (Homo sapiens) (UniProt Q9BXA7); settings: Compound concentration 100.0 nM
[42] = target: Serine/threonine-protein kinase ULK1 (Homo sapiens) (UniProt O75385); settings: Compound concentration 100.0 nM
[43] = target: Alpha-1A adrenergic receptor (Homo sapiens) (UniProt P35348); settings: Compound concentration 10.0 uM
[44] = target: Alpha-2B adrenergic receptor (Homo sapiens) (UniProt P18089); settings: Compound concentration 10.0 uM
[45] = target: Beta-3 adrenergic receptor (Homo sapiens) (UniProt P13945); settings: Compound concentration 10.0 uM

Sequence of Ribosomal protein S6 kinase alpha-5 (Homo sapiens) (O75582 whole entry, looked up): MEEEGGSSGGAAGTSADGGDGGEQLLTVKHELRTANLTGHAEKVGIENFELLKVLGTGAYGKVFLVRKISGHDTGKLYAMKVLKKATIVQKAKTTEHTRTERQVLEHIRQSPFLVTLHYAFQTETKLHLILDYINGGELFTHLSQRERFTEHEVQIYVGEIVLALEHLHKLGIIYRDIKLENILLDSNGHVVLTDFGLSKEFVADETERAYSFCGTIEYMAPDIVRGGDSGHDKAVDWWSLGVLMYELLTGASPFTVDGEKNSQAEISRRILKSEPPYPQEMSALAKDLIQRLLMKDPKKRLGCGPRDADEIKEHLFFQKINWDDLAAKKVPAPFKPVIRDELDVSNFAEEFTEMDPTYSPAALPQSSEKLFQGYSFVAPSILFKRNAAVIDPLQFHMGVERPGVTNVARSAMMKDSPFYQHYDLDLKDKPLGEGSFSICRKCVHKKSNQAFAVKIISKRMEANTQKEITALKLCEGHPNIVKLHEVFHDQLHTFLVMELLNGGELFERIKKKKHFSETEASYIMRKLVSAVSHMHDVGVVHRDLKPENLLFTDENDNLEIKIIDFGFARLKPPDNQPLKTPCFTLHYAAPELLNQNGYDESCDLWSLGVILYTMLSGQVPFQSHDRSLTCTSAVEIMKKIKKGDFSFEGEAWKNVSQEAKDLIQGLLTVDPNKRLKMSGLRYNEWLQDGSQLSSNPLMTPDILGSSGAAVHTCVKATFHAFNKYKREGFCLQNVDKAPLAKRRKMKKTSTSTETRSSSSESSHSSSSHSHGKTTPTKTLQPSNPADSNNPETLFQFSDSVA
Sequence of Angiopoietin-1 receptor (Homo sapiens) (Q02763 whole entry): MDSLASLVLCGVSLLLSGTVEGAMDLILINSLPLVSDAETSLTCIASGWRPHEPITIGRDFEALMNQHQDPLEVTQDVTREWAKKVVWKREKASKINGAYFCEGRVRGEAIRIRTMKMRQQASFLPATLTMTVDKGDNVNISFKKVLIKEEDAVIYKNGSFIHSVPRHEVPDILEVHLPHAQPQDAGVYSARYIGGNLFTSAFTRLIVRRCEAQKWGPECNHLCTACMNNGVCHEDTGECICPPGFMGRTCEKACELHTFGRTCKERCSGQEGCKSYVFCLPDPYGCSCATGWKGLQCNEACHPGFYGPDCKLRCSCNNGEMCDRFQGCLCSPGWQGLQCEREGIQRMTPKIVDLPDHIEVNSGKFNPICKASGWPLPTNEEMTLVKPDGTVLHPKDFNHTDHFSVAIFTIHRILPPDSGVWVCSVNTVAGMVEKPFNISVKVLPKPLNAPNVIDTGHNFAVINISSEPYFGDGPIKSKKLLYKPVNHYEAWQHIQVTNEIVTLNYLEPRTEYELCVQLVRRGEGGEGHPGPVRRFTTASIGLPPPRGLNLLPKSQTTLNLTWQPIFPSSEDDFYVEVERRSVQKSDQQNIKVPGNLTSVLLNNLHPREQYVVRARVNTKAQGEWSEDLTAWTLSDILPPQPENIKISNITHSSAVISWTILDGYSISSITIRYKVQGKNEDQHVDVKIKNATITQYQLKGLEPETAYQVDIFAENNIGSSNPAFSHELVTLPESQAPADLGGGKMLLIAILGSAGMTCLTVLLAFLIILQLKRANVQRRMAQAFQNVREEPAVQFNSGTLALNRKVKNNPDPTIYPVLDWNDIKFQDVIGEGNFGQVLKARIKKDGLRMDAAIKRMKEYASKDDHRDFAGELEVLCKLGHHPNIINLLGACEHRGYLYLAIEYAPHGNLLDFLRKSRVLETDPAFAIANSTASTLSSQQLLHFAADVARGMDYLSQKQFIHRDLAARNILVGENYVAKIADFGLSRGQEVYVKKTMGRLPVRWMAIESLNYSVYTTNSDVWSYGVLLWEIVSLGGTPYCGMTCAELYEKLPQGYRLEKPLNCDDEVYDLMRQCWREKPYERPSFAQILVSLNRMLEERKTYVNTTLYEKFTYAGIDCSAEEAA
Sequence of MAP kinase-interacting serine/threonine-protein kinase 1 (Homo sapiens) (Q9BUB5 whole entry, looked up): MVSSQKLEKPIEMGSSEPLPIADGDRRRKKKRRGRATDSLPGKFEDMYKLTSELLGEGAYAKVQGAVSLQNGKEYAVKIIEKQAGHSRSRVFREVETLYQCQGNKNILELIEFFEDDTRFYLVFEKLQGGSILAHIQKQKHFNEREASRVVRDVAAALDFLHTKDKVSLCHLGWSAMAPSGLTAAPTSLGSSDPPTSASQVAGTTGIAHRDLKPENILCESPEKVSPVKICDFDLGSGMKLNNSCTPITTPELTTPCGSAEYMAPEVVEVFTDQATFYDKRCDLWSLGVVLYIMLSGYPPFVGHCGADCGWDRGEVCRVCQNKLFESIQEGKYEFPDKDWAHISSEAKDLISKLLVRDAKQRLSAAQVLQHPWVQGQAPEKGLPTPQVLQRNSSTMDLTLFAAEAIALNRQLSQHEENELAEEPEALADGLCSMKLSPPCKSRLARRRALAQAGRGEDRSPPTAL
Sequence of Serine/threonine-protein kinase Sgk1 (Homo sapiens) (O00141 whole entry): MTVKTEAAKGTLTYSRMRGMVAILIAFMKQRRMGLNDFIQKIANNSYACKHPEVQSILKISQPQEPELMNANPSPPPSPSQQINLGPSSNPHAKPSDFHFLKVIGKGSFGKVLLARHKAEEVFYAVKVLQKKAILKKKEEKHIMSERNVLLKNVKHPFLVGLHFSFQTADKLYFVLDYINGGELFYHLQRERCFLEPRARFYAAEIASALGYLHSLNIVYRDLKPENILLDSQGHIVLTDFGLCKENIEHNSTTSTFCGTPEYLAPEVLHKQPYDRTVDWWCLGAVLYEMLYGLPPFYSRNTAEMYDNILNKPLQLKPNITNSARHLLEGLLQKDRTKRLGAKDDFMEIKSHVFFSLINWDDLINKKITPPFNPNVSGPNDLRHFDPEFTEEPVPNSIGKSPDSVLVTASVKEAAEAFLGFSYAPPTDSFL
Sequence of Protein kinase C delta type (Homo sapiens) (Q05655 whole entry, looked up): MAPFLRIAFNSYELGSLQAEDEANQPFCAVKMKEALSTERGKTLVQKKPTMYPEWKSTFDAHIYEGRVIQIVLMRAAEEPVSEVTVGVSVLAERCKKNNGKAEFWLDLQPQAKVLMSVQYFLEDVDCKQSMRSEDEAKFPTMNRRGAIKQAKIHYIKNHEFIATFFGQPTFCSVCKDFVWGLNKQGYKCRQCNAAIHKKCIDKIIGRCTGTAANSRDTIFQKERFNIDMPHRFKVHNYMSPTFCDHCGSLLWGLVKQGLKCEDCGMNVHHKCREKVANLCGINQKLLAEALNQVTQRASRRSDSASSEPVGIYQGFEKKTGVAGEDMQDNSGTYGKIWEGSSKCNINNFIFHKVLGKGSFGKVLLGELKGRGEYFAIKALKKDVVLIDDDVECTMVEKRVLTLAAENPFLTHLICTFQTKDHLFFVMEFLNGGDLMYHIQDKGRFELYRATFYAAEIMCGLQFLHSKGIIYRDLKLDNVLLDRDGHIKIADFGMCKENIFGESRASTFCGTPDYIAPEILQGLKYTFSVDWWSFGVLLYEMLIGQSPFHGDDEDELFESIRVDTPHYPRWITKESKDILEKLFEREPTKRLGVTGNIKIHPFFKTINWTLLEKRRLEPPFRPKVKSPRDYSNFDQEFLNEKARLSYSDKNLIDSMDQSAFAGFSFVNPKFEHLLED
Sequence of Homeodomain-interacting protein kinase 3 (Homo sapiens) (Q9H422 whole entry, looked up): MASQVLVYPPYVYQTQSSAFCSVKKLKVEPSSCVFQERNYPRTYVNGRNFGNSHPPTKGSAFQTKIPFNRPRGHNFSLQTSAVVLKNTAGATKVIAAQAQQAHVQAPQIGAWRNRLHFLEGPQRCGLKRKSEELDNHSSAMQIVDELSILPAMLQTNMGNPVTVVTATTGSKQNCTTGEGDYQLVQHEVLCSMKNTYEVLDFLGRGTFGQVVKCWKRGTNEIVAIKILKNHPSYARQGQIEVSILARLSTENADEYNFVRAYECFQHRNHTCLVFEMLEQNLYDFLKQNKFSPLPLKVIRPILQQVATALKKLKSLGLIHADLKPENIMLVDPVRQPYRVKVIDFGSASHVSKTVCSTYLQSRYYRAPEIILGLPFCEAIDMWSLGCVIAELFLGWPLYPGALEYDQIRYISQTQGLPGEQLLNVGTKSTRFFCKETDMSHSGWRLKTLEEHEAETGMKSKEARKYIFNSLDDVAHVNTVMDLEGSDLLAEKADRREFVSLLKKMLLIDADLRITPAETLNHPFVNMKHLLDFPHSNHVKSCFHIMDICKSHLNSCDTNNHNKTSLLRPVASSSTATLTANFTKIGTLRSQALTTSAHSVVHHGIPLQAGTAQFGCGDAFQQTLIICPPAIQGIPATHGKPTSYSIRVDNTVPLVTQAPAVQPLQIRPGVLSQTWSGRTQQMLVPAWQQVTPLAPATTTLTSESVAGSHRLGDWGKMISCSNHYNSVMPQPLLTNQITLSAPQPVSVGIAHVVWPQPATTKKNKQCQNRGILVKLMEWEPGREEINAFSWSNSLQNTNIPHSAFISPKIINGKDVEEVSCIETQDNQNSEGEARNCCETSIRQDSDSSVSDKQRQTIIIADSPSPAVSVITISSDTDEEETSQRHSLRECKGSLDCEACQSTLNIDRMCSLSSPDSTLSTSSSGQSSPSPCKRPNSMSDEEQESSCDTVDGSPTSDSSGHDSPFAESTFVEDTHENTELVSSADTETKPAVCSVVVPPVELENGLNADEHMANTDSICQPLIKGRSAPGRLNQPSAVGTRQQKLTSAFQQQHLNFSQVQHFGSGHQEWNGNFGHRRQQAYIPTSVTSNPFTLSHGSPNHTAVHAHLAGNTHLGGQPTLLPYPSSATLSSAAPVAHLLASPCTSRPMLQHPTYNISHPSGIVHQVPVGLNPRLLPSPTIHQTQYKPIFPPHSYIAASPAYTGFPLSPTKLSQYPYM
Sequence of Cyclin-dependent kinase 2 homolog (Plasmodium falciparum (isolate 3D7)) (P61075 whole entry): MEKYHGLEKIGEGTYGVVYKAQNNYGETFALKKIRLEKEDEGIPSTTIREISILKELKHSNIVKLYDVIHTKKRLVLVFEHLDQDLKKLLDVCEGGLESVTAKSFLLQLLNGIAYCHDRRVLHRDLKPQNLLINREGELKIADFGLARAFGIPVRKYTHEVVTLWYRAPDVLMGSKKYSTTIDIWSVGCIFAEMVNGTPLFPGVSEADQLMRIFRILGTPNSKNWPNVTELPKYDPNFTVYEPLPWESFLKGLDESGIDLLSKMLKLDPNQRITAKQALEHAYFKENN

O=C(NCCCC1CCCCC1)c1ccc(CNC(=O)c2cnn(-c3ccccc3)c2C(F)(F)F)cc1 [SR-321]
inactive: residual activity [1] 100% | residual activity [2] 100% | residual activity [3] 100% | residual activity [4] 100% | residual activity [5] 100% | residual activity [6] 79% | residual activity [7] 96% | residual activity [8] 98% | residual activity [9] 100% | residual activity [10] 99% | residual activity [11] 100% | residual activity [12] 70% | residual activity [13] 95% | residual activity [14] 100% | residual activity [15] 100% | residual activity [16] 100% | residual activity [17] 100% | residual activity [18] 100% | residual activity [19] 88% | residual activity [20] 100% | residual activity [21] 100% | residual activity [22] 100% | residual activity [23] 100% | residual activity [24] 100% | residual activity [25] 57% | residual activity [26] 100% | residual activity [27] 100% | residual activity [28] 73% | residual activity [29] 98% | residual activity [30] 100% | residual activity [31] 100% | residual activity [32] 100% | residual activity [33] 100% | residual activity [34] 100% | residual activity [35] 82% | residual activity [36] 100% | residual activity [37] 100% | residual activity [38] 89% | residual activity [39] 94% | residual activity [40] 100% | residual activity [41] 94% | residual activity [42] 100% | inhibition [43] 17.9% | inhibition [44] 1.13% | inhibition [45] 21.7%

Nc1c(C(=O)NCc2ccc(C(=O)NCCCC3CCCCC3)cc2)cnn1-c1ccccc1 [SR-318]
active: residual activity [24] 45% | residual activity [25] 39% | residual activity [35] 23%
inactive: residual activity [1] 100% | residual activity [2] 100% | residual activity [3] 100% | residual activity [4] 100% | residual activity [5] 100% | residual activity [6] 100% | residual activity [7] 100% | residual activity [8] 100% | residual activity [9] 100% | residual activity [10] 100% | residual activity [11] 98% | residual activity [12] 100% | residual activity [13] 100% | residual activity [14] 100% | residual activity [15] 100% | residual activity [16] 87% | residual activity [17] 100% | residual activity [18] 100% | residual activity [19] 100% | residual activity [20] 100% | residual activity [21] 86% | residual activity [22] 94% | residual activity [23] 100% | residual activity [26] 81% | residual activity [27] 94% | residual activity [28] 100% | residual activity [29] 82% | residual activity [30] 100% | residual activity [31] 100% | residual activity [32] 88% | residual activity [33] 100% | residual activity [34] 94% | residual activity [36] 82% | residual activity [37] 100% | residual activity [38] 100% | residual activity [39] 100% | residual activity [40] 100% | residual activity [41] 81% | residual activity [42] 100% | inhibition [43] 36.9% | inhibition [44] 17.7% | inhibition [45] 21.8%
